{
  "source": "patent US9951046B2",
  "about": "“TRPA1 modulators” (Algomedix, Inc., priority 2014, dated 2018)",
  "key": {"[1]": {"system": "neuropathic pain after L5-L6 spinal nerve injury", "experiment": "Spinal nerve ligation (SNL, Chung) neuropathic pain model, von Frey test", "format": "in vivo, rat", "settings": "30 mg/kg i.p.; for % MPE (% Maximum Possible Effect): rat, 18 days after L5-L6 spinal nerve injury, von Frey test 2 hrs post-dose, number of experiments in brackets; for anti-allodynic effect on paw withdrawal threshold and % MPE: rats 18 days after L5-L6 spinal nerve injury, mechanical allodynia 2 hrs post-dose, p<0.001 vs vehicle", "description": "This example describes the use of an animal model for testing compounds of the disclosure for their ability to reduce neuropathic pain. For the neuropathic pain model (spinal nerve ligation, SNL) also known as the Chung model, rats are anesthetized with isoflurane and placed on a heating pad. Using aseptic techniques, the L5 and L6 spinal nerves are exposed, ligated and transected (Kim, S. H. and Chung, J. […] Muscle and skin are closed with 4-0 Polydiaxone and wound clips, respectively. Allodynia is assessed 2-4 weeks post SNL surgery and only rats that develop allodynia as defined by a significant decrease in their mechanical threshold using von Frey filaments are used. Tactile allodynia is assessed with calibrated von Frey filaments (Stoelting Co, Wood Dale, Ill.), using an up-down paradigm (Chaplan, S. R., et al. (1994) J. Neurosci. Methods, 53 (1): 55-63). […] Test compounds are administered to the surgically treated rats either orally or I.P, and pain measurements are assessed at post-dosing intervals that correspond to near-maximal peak plasma concentrations for the test compound and specific mode of administration. The action of test compounds 175, 180, and 198 was evaluated in the Chung model after surgery to induce neuropathy. […] (10 ml/kg) was administered as a positive control group. Vehicle and test compounds were dissolved in 10% DMSO, 20% Tween-80 and 40% PEG-400. On the day before treatment, the neuropathic pain basal response was measured by von Frey test and the rats were randomized based on PWT responses. A cut-off of <4.0 g was considered before selection of animals for treatment. On the day of treatment, the test compounds were administered at 30 mg/kg i.p. (10 ml/kg) dissolved in 10% DMSO, 20% Tween-80, 40% PEG-400. […] (10 ml/kg). The mechanical allodynia was measured at 2 hrs post-dose. Results for compound 175 are shown in FIGS. 1 and 2 where data are presented as paw withdrawal threshold (PWT in g) (FIG. 1) and percentage of maximal possible effect (% MPE) (FIG. 2). Each bar represents the mean±SEM of 8 rats."}, "human TRPA1": {"target": "T1, human TRPA1 (Homo sapiens, UniProt O75762)", "T1 construct": "expressed in transfected cells", "T1 sequence (O75762 whole entry)": "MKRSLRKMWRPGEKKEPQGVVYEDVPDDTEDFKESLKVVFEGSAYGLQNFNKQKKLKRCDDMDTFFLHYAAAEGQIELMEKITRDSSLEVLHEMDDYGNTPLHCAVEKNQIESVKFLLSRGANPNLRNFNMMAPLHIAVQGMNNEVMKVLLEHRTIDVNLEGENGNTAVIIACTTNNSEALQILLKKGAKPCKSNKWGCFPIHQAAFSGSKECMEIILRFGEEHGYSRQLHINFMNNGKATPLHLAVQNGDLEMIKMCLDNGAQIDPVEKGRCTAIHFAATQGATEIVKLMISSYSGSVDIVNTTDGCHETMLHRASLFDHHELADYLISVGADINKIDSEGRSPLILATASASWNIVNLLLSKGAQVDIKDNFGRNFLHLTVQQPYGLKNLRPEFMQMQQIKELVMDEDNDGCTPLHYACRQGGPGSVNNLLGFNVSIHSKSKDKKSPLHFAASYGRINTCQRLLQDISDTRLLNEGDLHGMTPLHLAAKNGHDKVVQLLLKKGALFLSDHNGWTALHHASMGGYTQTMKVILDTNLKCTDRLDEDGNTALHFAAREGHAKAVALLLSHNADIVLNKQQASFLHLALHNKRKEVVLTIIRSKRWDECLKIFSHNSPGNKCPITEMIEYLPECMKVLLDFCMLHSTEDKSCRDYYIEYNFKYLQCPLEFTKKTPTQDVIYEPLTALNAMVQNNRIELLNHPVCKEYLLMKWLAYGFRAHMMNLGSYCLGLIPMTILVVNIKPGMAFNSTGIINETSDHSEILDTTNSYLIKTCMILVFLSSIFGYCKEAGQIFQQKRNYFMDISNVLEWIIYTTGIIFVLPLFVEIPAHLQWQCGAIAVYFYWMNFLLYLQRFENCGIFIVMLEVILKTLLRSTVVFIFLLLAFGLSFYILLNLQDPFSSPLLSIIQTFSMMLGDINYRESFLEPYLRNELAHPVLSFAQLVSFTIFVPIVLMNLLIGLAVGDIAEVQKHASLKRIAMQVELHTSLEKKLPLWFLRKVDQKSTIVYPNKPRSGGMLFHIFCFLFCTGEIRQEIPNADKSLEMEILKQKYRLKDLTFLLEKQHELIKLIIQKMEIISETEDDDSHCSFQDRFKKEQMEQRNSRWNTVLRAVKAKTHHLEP", "experiment": "Cell-based functional intracellular calcium ([Ca2+]i) assay, Fluo-4/Fluo-8, FlexStation, challenge with reference TRPA1 agonist (FFA, AITC or 4-HNE)", "procedure,_shortened": "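Doxycycline-induced (1 μg/ml) HEK293 expressing human TRPA1, with 5 μM ruthenium red during induction, loaded with Fluo-4 or Fluo-8 plus 2 mM probenecid; FlexStation read at 20-25° C, sometimes with 0.1% BSA.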"}, "[2]": {"system": "paclitaxel-induced neuropathic pain", "experiment": "Paclitaxel chemotherapy-induced neuropathic pain model, von Frey filaments", "format": "in vivo", "settings": "rat paclitaxel model, 10 mg/kg i.p.; for % MPE for reversing paclitaxel induced neuropathic pain: mechanical allodynia (von Frey)", "description": "Chemotherapy-induced peripheral neuropathy is one of the most serious complications of anti-cancer drug therapy. […] The TRPA1 antagonist, AD_09, has been reported to reduce neuropathic pain in the oxaliplatin model (Nativi, C, et al. (2013) Scientific Reports 3, 2005, 1-10.)\nThe studies described below provide a method to test compounds of the present invention in the established rat model of paclitaxel-induced neuropathic pain (Flatters, S J and Bennett, G, Pain (2004) 109:150-161) and provide evidence for efficacy for one compound of the present invention. In this procedure, male Sprague-Dawley rats received i.p. injections of 1 mg/kg paclitaxel or vehicle solution every other day for a total of 4 injections (Day 0, 2, 4 and 6). After receiving injections on even-number experimental days, the rats were tested for mechanical and cold allodynia on odd-number experimental days. After the full development of allodynia after the last paclitaxel injection on day 11, one subgroup of the rats (7 rats per treatment group) received an oral dose or i.p. injection of compound of the present invention (e.g., 1, 3, 10 or 30 mg/kg) or its vehicle solution. On the day of treatment, the test compound was administered at 10 mg/kg i.p. (2 ml/kg) dissolved in 10% DMSO, 20% Tween-80, 40% PEG-400. Additional test groups included vehicle control and gabapentin at 10, 30 and 100 mg/kg i.p. (2 ml/kg). The mechanical allodynia was measured at 2 hrs post-dose for compound 271. Mechanical allodynia was measured using the Von Frey filaments to determine the paw withdrawal threshold for each animal and assess the effects of the test compound-s to reduce pain. Rats were tested for mechanical and/or cold allodynia 1 hour after dosing.\nRats can be tested at approximately 2 hour intervals thereafter (time interval dependent on the effect) as long as the effect of TRPA1 antagonist lasts. In some cases, more than one treatment of the compound of the present invention (TRPA1 antagonist) can be given before or after the effect of the previous dose subsides to provide repetitive dosing regimens."}, "[3]": {"settings": "HEK293 cells expressing human TRPA1, IC50 class after addition of reference TRPA1 agonist (FFA, AITC or 4-HNE), read-out: human TRPA1-HEK Activity"}},
  "note": "Like-named read-outs stand apart in the source and are kept apart here.",
  "data": [
    {"smiles": "O=C(c1cc(-c2ccncc2)n(-c2cc(F)c(F)c(F)c2)n1)N1CCC(n2c(=O)[nH]c3ccc(F)c(F)c32)CC1", "note": "[Compound 175]", "values": [
      {"measurement": "% MPE (% Maximum Possible Effect)", "setting": "[1]", "result": "59 ± 10 (3) ^ %"},
      {"measurement": "anti-allodynic effect on paw withdrawal threshold and % MPE", "setting": "[1]", "result": "significant anti-allodynic effect"},
      {"measurement": "IC50", "setting": "human TRPA1; [3]", "result": "1 to 5000", "unit": "nM"}
    ]},
    {"smiles": "O=C(c1cc(-c2cccnc2)n(-c2ccc(C(F)(F)F)c(F)c2)n1)N1CCC2(CC1)C(=O)NCN2c1ccc(F)cc1", "note": "[Compound 180]", "values": [
      {"measurement": "% MPE (% Maximum Possible Effect)", "setting": "[1]", "result": "65 (1) %"},
      {"measurement": "anti-allodynic effect on paw withdrawal threshold and % MPE", "setting": "[1]", "result": "significant anti-allodynic effect"},
      {"measurement": "IC50", "setting": "human TRPA1; [3]", "result": "1 to 5000", "unit": "nM"}
    ]},
    {"smiles": "O=C(c1cc(-c2cccnc2)n(-c2cc(F)c(F)c(F)c2)n1)N1CCC(n2c(=O)[nH]c3ccc(F)c(F)c32)CC1", "note": "[Compound 198]", "values": [
      {"measurement": "% MPE (% Maximum Possible Effect)", "setting": "[1]", "result": "41 (1) %"},
      {"measurement": "anti-allodynic effect on paw withdrawal threshold and % MPE", "setting": "[1]", "result": "significant anti-allodynic effect"},
      {"measurement": "IC50", "setting": "human TRPA1; [3]", "result": "1 to 5000", "unit": "nM"}
    ]},
    {"smiles": "O=C(c1cc(-c2cccnc2)n(-c2ccc(F)c(C(F)(F)F)c2)n1)N1CCC(n2c(=O)[nH]c3ccc(F)c(F)c32)CC1", "note": "[Compound 271]", "values": [
      {"measurement": "anti-allodynic effect on paw withdrawal threshold", "setting": "[2]; 2 hrs post-dose, p<0.05", "result": "significant anti-allodynic effect"},
      {"measurement": "% MPE for reversing paclitaxel induced neuropathic pain", "setting": "[2]", "result": 49.1, "unit": "% MPE"}
    ]},
    {"smiles": "N#Cc1ccc2[nH]c(=O)n(C3CCN(C(=O)c4cc(-c5cccnc5)n(-c5ccc(C#N)c(F)c5)n4)CC3)c2c1", "note": "[Compound 328]", "values": [
      {"measurement": "IC50", "setting": "human TRPA1; [3]", "result": "1 to 5000", "unit": "nM"}
    ]},
    {"smiles": "Cc1cc(N2CNC(=O)C23CCN(C(=O)c2cc(-c4cccnc4)n(-c4ccc(C#N)c(F)c4)n2)CC3)cc(C)c1F", "note": "[Compound 329]", "values": [
      {"measurement": "IC50", "setting": "human TRPA1; [3]", "result": "1 to 5000", "unit": "nM"}
    ]},
    {"smiles": "N#Cc1ccc(-n2nc(C(=O)N3C4CCC3CC3(C4)C(=O)NCN3c3ccc(F)cc3)cc2-c2cccnc2)cc1F", "note": "(stereo not drawn) [Compound 330]", "values": [
      {"measurement": "IC50", "setting": "human TRPA1", "result": "1 to 5000", "unit": "nM"}
    ]},
    {"smiles": "O=C(c1cc(-c2cccnc2)n(-c2ccc(F)c(C(F)(F)F)c2)n1)N1C2CCC1CC(n1c(=O)[nH]c3ccc(F)c(F)c31)C2", "note": "(stereo not drawn) [Compound 331]", "values": [
      {"measurement": "IC50", "setting": "human TRPA1", "result": "1 to 5000", "unit": "nM"}
    ]},
    {"smiles": "O=C(c1cc(-c2cccnc2)n(-c2ccc(F)c(C(F)(F)F)c2)n1)N1CCC2(CC1)C(=O)NCN2c1cc(Cl)c(F)c(Cl)c1", "note": "[Compound 332]", "values": [
      {"measurement": "IC50", "setting": "human TRPA1; [3]", "result": "1 to 5000", "unit": "nM"}
    ]},
    {"smiles": "O=C(c1cc(-c2cccnc2)n(-c2ccc(F)c(C(F)(F)F)c2)n1)N1C2CCC1CC1(C2)C(=O)NCN1c1ccc(F)cc1", "note": "(stereo not drawn) [Compound 333]", "values": [
      {"measurement": "IC50", "setting": "human TRPA1", "result": "1 to 5000", "unit": "nM"}
    ]},
    {"smiles": "NCC1(CC(=O)O)CCCCC1", "note": "[gabapentin, reference compound]", "values": [
      {"measurement": "% MPE for reversing paclitaxel induced neuropathic pain", "setting": "[2]", "result": 34.8, "unit": "% MPE"}
    ]}
  ]
}
